Experimental data as given in patent publication EP0536208B1, “1,2-DIHYDRO-3H-DIBENZISOQUINOLINE-1,3-DIONE ANTICANCER AGENTS” (RESEARCH CORPORATION TECHNOLOGIES, INC., priority 1990, dated 1992).
Converted amounts (≈) assume the structure as drawn. Where two headings read alike, the source gives them in different places.

Experiments:
[1] = tested on: 205p14; assay: Activity against human colon tumor cells (MTT assay, 3 day drug exposure); type: cell-based; conditions: cells plated 24 hr. prior to drug addition, read-out: Concentration for 50% inhibition of colony formation for human colon tumors
Procedure: (§1) For example, the compounds of the present invention were evaluated for cytotoxic activities in cloned human colon carcinomas. The clonogenic assays were conducted in accordance with the procedure described hereinbelow: 1) Colony Forming Assays in Soft Agar: Fresh human or murine tumors are disaggregated into single cell suspensions using mechanical, hypoosmotic and/or enzymatic (trypsin) methods. The single cells (about 5 X 10^4-10^5) are plated in 35 mm plastic petri dishes onto a 1 ml "feeder layer" of 0.3% agar dissolved in growth medium containing 5-10% vol/vol of heat-inactivated fetal bovine serum, molten 0.3% agar and the antibiotics penicillin (100 u/mL) and streptomycin (100 ug/mL). Drug exposures can be performed for one hour or continuously (drugs added to final plating medium). Tumor cell colonies > 60 uM in size are counted by automated image analysis after 10-20 days of incubation in a humidified, 5-10% CO2-gassed environment maintained at 37°C. Inhibition of colony formation is calculated based on comparisons to control (untreated) plates wherein the growth of hundreds of colonies/plate is typical. (Salmon SE, et al., N Engl J Med 298(24):1321-1327, 1978).
(§2) Compounds of the present invention were tested for their in vitro activity in tumor cells sensitive and resistant to standard anti-cancer agents. The tumor cell lines used in this protocol are 8226 human Myeloma^1; 8226/Dox-40^2, L-1210/Murine Leukemia, multidrug resistant L-210/^3, 2780 Human Ovarian Cancer and 2780/AD^4. Each of these resistant cell lines is known as a multidrug resistant or "MDR" cell line. These cell lines produce a 170,00 molecular weight membrane protein termed the P-glycoprotein which acts as an active drug efflux pump. Thus, once a cell produces the P-glycoprotein, it has the capability of pumping out of the cell a large variety of unrelated natural products. […] The protocol for measuring the effectiveness of compounds of the present invention is as follows: 2) In Vitro Tumor Cell Viability Assays Using MTT-Dye: Tumors are processed into a single cell suspension as described above. The cells are plated at a concentration of 3-5 X 10^4/1 mL well into plastic 96-well plates. Growth medium containing 5-10% (vol/vol) heat-inactivated fetal bovine serum and penicillin/streptomycin (as above) is added prior to incubation at 37°C for six days. Afterwards the medium containing the drug is removed, the cells are "washed" by centrifugation in fresh medium or phosphate-buffered saline (pH 7.4). A tetrazolium dye is then added (3,4,5-dimethylthiazol-2-yl)-2,5-diphenyl tetrazolium bromide (MTT). This dye forms a colored formazan product upon activation by mitochondrial reductases in viable cells. Typically, the formazan product is solubilized in acid-propanol or DMSO. The intensity of the color is proportional to viable cell numbers and this is quantitated by spectrophotometric absorbance ([…]) on a micro ELISA plate reader. Test results are calibrated in % control absorbance from untreated tumor cells (Mossman T: J Immunol Meth 65:55-63, 1983). Using the above procedure, Compound 1 was tested for its cytotoxic activity with respect to various tumor cell lines.

[2] = tested on: LOVOp32; assay: as above; type: cell-based; conditions: cells plated 24 hr. prior to drug addition, read-out: Concentration for 50% inhibition of colony formation for human colon tumors
Procedure: as §1, §2

[3] = tested on: M5-76 Sarcoma; assay: Tumor growth delay in mice, M5-76 sarcoma model; type: in vivo; conditions: -76 Sarcoma (Southern Research Institute)
Procedure: Corbett, T.H., et al., Cancer Chemo Rep., 5 (1975). Mammary 16-C Adenocarcinoma and M5-76 Sarcoma: Chunks of tumor (20-50 mg) are subcutaneously implanted into the flank of B6C3F1 female mice. Drugs (10-45 mg/kg) are dissolved in saline and injected intraperitoneally every four days for three times starting one day after tumor implantation. Tumors are measured bidimensionally as described above and tumor growth delay is calculated at times to reach 1.5 and 3.0 g of tumor mass.

[4] = tested on: 8226 Human Myeloma; assay: In vitro tumor cell viability assay using MTT dye; type: cell-based
Procedure: as §2, with “Growth medium containing 5-10% (vol/vol) heat-inactivated fetal bovine serum and penicillin/streptomycin (as above) is added prior to incubation at 37°C for six days.” left out

[5] = tested on: L-1210/Murine Leukemia; assay: In vitro tumor cell viability assay using MTT dye; type: cell-based; conditions: Mus musculus
Procedure: as §2, with “Growth medium containing 5-10% (vol/vol) heat-inactivated fetal bovine serum and penicillin/streptomycin (as above) is added prior to incubation at 37°C for six days.” left out

[6] = tested on: 2780 Human Ovarian Cancer; assay: In vitro tumor cell viability assay using MTT dye; type: cell-based; conditions: MTT dye reduction
Procedure: as §2, with “Growth medium containing 5-10% (vol/vol) heat-inactivated fetal bovine serum and penicillin/streptomycin (as above) is added prior to incubation at 37°C for six days.” left out

CN(C)CCN1C(=O)c2cccc3cc4ccccc4c(c23)C1=O [Compound 1, 2-[2'-(dimethylamino)ethyl]-1,2-dihydro-3H-dibenz(deh)isoquinoline-1,3-dione]
IC50 [1]: 400 nM | IC50 [2]: 300 nM | Experimental Activity, Days of Tumor Growth Delay [3]: 7 days | IC50 ([4]; 96 h, 8226 Human Myeloma, 4-day drug exposure, MTT dye reduction, read-out: Activity (IC50)): 11 ng/mL (≈ 0.0346 µM) | IC50 ([4]; Homo sapiens, 8226 Myeloma Cells Sensitive, continuous exposure, MTT dye assay, read-out: IC50 VALUES): 10 ng/mL (≈ 0.0314 µM) | IC50 ([5]; 144 h, Sensitive L1210, six day MTT assay, continuous drug exposure, read-out: Concentration for 50% inhibition of tumor cells): 2.5 ng/mL (≈ 0.00785 µM) | IC50 ([5]; L1210, 96 h, L-1210/Murine Leukemia, 4-day drug exposure, MTT dye reduction, read-out: Activity (IC50)): 3 ng/mL (≈ 0.00942 µM) | IC50 ([5]; L1210 Leukemia Cells Sensitive, continuous exposure, MTT dye assay, read-out: IC50 VALUES): 2.8 ng/mL (≈ 0.00879 µM) | IC50 [6]: 4000 ng/mL (≈ 12.6 µM)
